# Entries after “also recorded” stand apart in the source; their conditions may differ. Like-named read-outs stand apart in the source and are kept apart here.
# How the values were obtained:
# ldlA[mSR-BI] cells = assay: Cell cytotoxicity assay (CellTiter-Glo); assay type: cell-based, Chinese hamster
# Experimental: It is possible that a compound will cause cells to decrease HDL-mediated DiI uptake due to nonspecific consequences of cellular toxicity, representing a second class of false positive hits. The cells were treated with compounds for 3 hours or 24 hours, and then cell viability was measured using the CellTiter-Glo Assay (Promega), a luciferase-based reagent that measures cellular ATP levels. The compounds were tested at different concentrations to determine IC50 values. […] Compounds that were active in the primary assay but toxic below 30 μM at 24 hours (but nontoxic at 3 hours) were still considered. […] Data were normalized against DMSO and the positive control (1 μM BLT-1) in Genedata Assay Analyzer.
# All available dry powder samples of the remaining, non-quenching compounds were procured from commercial sources and purities were determined. The compounds obtained were then retested in the primary assay and in the cytotoxicity assays. We wanted to rule out any compounds that were cytotoxic, especially in the 3-hour time span of the primary DiI-HDL uptake assay. Therefore, compounds were tested in ldlA[mSR-BI]cells for cytotoxicity at 3 hours and 24 hours using the CellTiter-Glo assay (Promega) that measures cellular ATP as a marker of cell viability. […] Compounds were screened for inhibition of endocytosis using labeled transferrin, which is known to bind the transferrin receptor, enter cells by clathrin-mediated endocytosis, and move to endosomes before being recycled to the cell surface. The BLT compounds have also been tested for potential interference with endocytosis and show no such activity.
# [1] = tested on: endocytosis of transferrin; assay: Transferrin endocytosis assay; assay type: cell-based
# Source text: Transferrin Endocytosis Assay (SA 3: AID No. 602134) This assay measures the endocytosis of an independent ligand, transferrin, which is not taken up via SR-BI but by clathrin-mediated endocytosis. This assay provides a measure of the selectivity of the inhibitors. Alexa-594-labeled transferrin is taken into the cell via endocytosis and localization of labeled transferrin was quantitated in the various intracellular compartments. […] Inhibitors of interest should act selectively at SR-BI and should have no activity in this assay. Cells were pre-treated with compound for 3 hours and then treated with the Alexa-594 transferrin reagent for 30 minutes (Catalog No. T-13343; Invitrogen) in serum-free media. Plates of cells were then placed onto ice, washed with ice cold PBS, and then fixed with 4% paraformaldehyde. In addition, the nuclei were stained with 300 nM 4′,6-diamidino-2-phenylindole (DAPI) (Catalog No. 21490; Invitrogen). The cells were imaged with the Molecular Devices IXM microscope (FIG. 22). Translocation measurements were performed using MetaExpress software and normalized for cell number.
# murine SR-BI = target: T1, murine SR-BI (Mus musculus, UniProt Q61009); assay: Compound reversibility, cellular uptake of DiI from DiI-HDL; assay type: cell-based; details: 1 hr preincubation, then 0 or 4 hr incubation in the absence of compound; read-out: IC50, reversibility test (DiI uptake)
# T1 construct: expressed in transfected cells; host or cells: ldlA[mSR-BI]; (CHO ldlA7 derivative lacking the LDL receptor)
# T1 sequence (Q61009 1-509): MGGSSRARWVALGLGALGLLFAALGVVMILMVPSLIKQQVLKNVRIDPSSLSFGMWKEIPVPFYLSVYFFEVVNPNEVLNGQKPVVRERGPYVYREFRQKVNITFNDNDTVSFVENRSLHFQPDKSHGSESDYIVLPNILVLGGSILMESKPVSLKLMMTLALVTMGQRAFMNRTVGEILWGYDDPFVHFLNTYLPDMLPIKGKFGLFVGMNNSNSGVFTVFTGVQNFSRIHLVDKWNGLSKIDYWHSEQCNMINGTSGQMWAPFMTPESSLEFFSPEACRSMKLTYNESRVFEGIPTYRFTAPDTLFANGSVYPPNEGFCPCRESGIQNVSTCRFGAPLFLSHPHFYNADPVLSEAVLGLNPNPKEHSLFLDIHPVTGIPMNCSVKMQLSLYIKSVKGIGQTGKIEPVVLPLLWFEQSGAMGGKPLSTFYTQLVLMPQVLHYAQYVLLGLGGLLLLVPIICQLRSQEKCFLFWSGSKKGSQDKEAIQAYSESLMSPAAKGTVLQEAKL
# Experimental: Compound reversibility was tested by measuring the cellular uptake of DiI from DiI-HDL (all incubations at 37° C.) in ldlA7 cells that were stably transfected with cDNA encoding murine SR-BI. On day 0, 50,000 cells were plated in 96-well dishes per well (Costar, black with clear, flat bottom) in Ham's F12 medium containing 2 mM L-glutamine, 50 units/mL penicillin per 50 μg/mL streptomycin (medium A) supplemented with 5% (vol/vol) FBS and 0.25 mg/mL G418 (medium B). On day 2, the cells were washed twice with prewarmed (37° C.) medium A. The cells were then preincubated with the tested compounds in 200 μL per well of medium A plus 0.5% (wt/vol) BSA plus 0.5% (vol/vol) DMSO (medium C) for 1 hr. The 1 hr preincubation was followed by either a 0 or 4 hr incubation in medium C in the absence of compound. The cells were then incubated in medium C (200 μL per well) containing 10 μg protein per mL of DiI-HDL at 37° C. for 2 h to measure DiI uptake. […] Then 50 μL PBS was added and fluorescence measurements made using a Molecular Devices SpectraMax fluorescence plate reader (excitation at 515 nm, emission at 575 nm, bottom read mode). DiI uptake was also measured in the presence of a 40-fold excess of unlabeled HDL to determine nonspecific (SR-BI-independent) uptake.
# SR-BI = target: T2, SR-BI (Mus musculus, UniProt Q61009); assay: Radioactive HDL uptake assay (wild type SR-BI); assay type: cell-based, murine; set-up: expressed in transfected cells; host or cells: ldlA[mSR-BI]; (CHO ldlA7 derivative lacking the LDL receptor); details: [3H]cholesteryl ester HDL; read-out: average IC50, radiolabeled version of the uptake assay
# T2 sequence (Q61009 1-509): T1 sequence (Q61009 1-509)
# Source text: Radioactive HDL Uptake Assay (wild type SR-BI) (SA 8: AID No. 588836)
# The goal of this assay is to verify compounds that disrupt the lipid uptake from HDL particles to SR-BI scavenger receptor-expressing cells using an alternative means of labeling HDL particles and avoiding any type of fluorescence measurement. To measure this binding event, HDL particles are labeled with [^3H]cholesteryl ester and added to mSR-BI expressing cells. Cells take up the radioactive lipids from HDL via SR-BI in 2 to 3 hours. After significant uptake of the lipids from HDL, the radiolabel can be detected by liquid scintillation counting. The level of radioactivity correlates with the amount of HDL lipid uptake. The uptake of lipid from the HDL particles particles can be inhibited by the compound BLT-1 or when co-treated with an excess of unlabeled HDL. The ldlA[mSR-BI]-expressing cells utilized in the assay are from a Chinese Hamster Ovary (CHO) cell line lacking expression of the LDL receptors and overexpressing the scavenger receptor, SR-BI. Inhibitors of SR-BI and HDL lipid uptake will have a reduction in liquid scintillation counts.
compound,measurement,setting,value
"CCCCCCC1CCCC1=NNC(N)=S (centres unmarked) [BLT-1, reference compound]",cytotoxicity,ldlA[mSR-BI] cells,toxic to cells
"COCC(=O)N1CCc2cc(-c3csc(NC(=O)c4cc(OC)cc(OC)c4)n3)ccc21 [Compound 137, 3,5-Dimethoxy-N-(4-(1-(2-methoxyacetyl)indolin-5-yl)thiazol-2-yl)benzamide]",cytotoxicity,ldlA[mSR-BI] cells; listed as ML278,no cytotoxicity at 24 hours; also recorded: shows no cytotoxicity
same,effect on the endocytosis of transferrin,[1]; at concentrations up to 35 μM,no effect on the endocytosis of transferrin
same,endocytosis of transferrin,[1]; listed as ML278,not grossly perturbing cellular membrane trafficking pathways
same,endocytosis of transferrin,[1]; listed as Probe 278,did not inhibit endocytosis of transferring
same,endocytosis of transferrin,[1]; listed as compound of Formula (II),does not inhibit endocytosis of transferrin
same,IC50,murine SR-BI,315 nM
same,IC50,SR-BI,1000 nM

# Source: patent publication US9951055B2, “Thiazole-based inhibitors of scavenger receptor BI” (THE BROAD INSTITUTE, INC., priority 2012, dated 2018)
